Experimental data from ChEMBL document CHEMBL1137871, “Discovery of orally active prostaglandin D2 receptor antagonists” (Bioorg Med Chem Lett, 2004).

Experiments:
[1] = target: T1, Prostaglandin D2 receptor (Mus musculus, UniProt P70263); assay: Ability to inhibit the binding of [3H]PGD-2 radioligand to membranes of CHO cells stably expressing mouse Prostaglandin D2 receptor; format: cell membranes
T1 sequence (P70263 whole entry): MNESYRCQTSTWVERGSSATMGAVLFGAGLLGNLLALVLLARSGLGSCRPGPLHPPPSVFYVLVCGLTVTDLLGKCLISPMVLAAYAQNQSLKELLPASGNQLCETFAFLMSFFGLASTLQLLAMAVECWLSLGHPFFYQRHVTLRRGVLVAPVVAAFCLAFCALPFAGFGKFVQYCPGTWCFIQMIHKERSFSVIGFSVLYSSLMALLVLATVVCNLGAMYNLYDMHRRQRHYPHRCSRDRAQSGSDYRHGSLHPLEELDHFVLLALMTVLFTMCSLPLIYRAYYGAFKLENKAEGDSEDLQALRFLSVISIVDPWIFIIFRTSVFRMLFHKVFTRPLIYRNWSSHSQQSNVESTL

[2] = target: T2, Prostaglandin E2 receptor EP1 subtype (Mus musculus, UniProt P35375); assay: Ability to inhibit the binding of [3H]PGD-2 radioligand to membranes of CHO cells stably expressing mouse Prostaglandin E receptor EP1; format: cell membranes
T2 sequence (P35375 whole entry): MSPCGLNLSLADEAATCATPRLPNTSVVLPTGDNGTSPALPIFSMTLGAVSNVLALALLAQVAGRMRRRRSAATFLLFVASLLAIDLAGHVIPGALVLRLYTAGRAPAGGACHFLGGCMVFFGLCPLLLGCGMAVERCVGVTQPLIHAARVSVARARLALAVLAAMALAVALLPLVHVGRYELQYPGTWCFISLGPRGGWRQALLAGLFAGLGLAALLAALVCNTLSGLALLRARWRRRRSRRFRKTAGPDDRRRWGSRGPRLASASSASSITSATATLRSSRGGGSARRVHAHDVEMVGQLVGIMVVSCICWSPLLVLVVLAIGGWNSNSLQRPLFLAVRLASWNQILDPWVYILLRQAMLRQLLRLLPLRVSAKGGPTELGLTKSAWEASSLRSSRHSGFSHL

[3] = target: Prostaglandin E2 receptor EP2 subtype (Mus musculus, UniProt Q62053); assay: Ability to inhibit the binding of [3H]-PGD-2 radioligand to membranes of CHO cells stably expressing mouse Prostaglandin E receptor EP2; format: cell membranes
[4] = target: T3, Prostaglandin E2 receptor EP3 subtype (Mus musculus, UniProt P30557); assay: Ability to inhibit the binding of [3H]PGD-2 radioligand to membranes of CHO cells stably expressing mouse Prostaglandin E receptor EP3; format: cell membranes
T3 sequence (P30557 whole entry): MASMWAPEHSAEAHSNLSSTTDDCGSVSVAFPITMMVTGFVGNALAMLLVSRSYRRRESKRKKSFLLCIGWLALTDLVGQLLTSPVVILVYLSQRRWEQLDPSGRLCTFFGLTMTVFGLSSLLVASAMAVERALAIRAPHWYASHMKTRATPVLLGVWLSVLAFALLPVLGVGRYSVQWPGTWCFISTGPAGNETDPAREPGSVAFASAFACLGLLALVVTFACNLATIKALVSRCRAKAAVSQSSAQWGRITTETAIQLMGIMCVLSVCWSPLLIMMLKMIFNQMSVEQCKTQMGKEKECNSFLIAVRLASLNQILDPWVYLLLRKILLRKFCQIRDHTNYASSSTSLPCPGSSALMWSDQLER

[5] = target: Prostaglandin E2 receptor EP4 subtype (Mus musculus, UniProt P32240); assay: Ability to inhibit the binding of [3H]PGD-2 radioligand to membranes of CHO cells stably expressing mouse Prostaglandin E receptor EP4; format: cell membranes
[6] = target: T1, Prostaglandin D2 receptor; assay: Effect on the increase in cAMP formation induced by PGD-2 in the presence of bovine serum albumin in CHO cells expressing mouse Prostaglandin D2 receptor; format: functional, cell-based
[7] = target: T4, Prostaglandin D2 receptor (Homo sapiens, UniProt Q13258); assay: Ability to inhibit the binding of [3H]PGD-2 radioligand to membranes of CHO cells stably expressing human Prostaglandin D2 receptor; format: cell membranes
T4 sequence (Q13258 whole entry): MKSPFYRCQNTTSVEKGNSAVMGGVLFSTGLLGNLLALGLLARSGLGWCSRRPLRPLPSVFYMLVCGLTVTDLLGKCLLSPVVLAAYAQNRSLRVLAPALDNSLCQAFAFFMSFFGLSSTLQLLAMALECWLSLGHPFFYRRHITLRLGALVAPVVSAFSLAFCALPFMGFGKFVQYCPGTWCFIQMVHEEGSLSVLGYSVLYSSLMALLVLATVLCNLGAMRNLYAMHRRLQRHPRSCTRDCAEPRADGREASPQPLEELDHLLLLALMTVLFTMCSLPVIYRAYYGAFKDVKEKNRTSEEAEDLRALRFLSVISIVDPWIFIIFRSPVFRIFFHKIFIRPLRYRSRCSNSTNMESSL

[8] = target: T4, Prostaglandin D2 receptor; assay: Effect on the increase in cAMP formation induced by PGD-2 in the presence of bovine serum albumin in CHO cells expressing human Prostaglandin D2 receptor; format: functional, cell-based
Cavia porcellus = assay: inhibitory effect of compound on PGD-2 (0.01%, 20 uL/eye) induced vascular permeability in guinea pig conjunctiva at an oral dose of 0.3 mg/kg

Prostaglandin E2 receptor EP4 subtype, sequence (P32240 whole entry): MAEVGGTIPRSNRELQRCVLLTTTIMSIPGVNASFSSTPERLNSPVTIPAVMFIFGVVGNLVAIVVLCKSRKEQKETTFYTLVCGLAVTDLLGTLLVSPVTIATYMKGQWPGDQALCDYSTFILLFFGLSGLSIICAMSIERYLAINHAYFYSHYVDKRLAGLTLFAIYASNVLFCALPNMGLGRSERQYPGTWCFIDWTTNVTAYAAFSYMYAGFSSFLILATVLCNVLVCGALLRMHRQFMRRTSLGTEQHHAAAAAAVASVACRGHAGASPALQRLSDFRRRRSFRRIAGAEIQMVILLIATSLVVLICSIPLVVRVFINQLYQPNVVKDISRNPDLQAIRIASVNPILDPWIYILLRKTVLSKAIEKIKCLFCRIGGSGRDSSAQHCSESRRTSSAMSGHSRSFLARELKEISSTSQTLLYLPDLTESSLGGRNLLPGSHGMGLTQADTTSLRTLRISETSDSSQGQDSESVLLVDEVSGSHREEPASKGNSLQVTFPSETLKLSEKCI
Prostaglandin E2 receptor EP2 subtype, sequence (Q62053 whole entry): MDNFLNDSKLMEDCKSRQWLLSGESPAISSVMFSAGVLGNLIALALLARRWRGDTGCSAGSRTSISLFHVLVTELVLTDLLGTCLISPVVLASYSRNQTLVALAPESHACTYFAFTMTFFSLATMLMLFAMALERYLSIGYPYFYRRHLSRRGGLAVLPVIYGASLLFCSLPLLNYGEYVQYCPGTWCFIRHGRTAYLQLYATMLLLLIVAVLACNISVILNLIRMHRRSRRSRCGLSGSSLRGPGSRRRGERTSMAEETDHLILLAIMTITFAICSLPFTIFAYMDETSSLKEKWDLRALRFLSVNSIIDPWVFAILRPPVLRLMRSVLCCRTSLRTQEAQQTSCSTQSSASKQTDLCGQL

Compound	Ki [1]	Ki [2]	Ki [3]	Ki [4]	Ki [5]	IC50 [6]	Ki [7]	IC50 [8]	inhibition in vivo at 0.3 mg/kg (Cavia porcellus)
Cc1cc2c(CC(=O)O)cccc2n1C(=O)c1ccc(OCCCc2ccccc2)cc1	170 nM	7700 nM	–	3300 nM	2100 nM	–	–	–	–
Cc1cc2c(CC(=O)O)cccc2n1C(=O)c1ccc(OCC2COc3ccccc3C2)cc1 (stereo unspecified)	180 nM	> 10000 nM	280 nM	> 10000 nM	3500 nM	–	390 nM	–	–
Cc1cc2c(CC(=O)O)cccc2n1C(=O)c1ccc(OCCc2ccccc2)cc1	–	400 nM	1300 nM	2200 nM	1900 nM	–	–	–	–
Cc1cc2c(CC(=O)O)cccc2n1C(=O)c1ccc(OCc2ccccc2)cc1	60 nM	1200 nM	330 nM	1200 nM	> 10000 nM	1300 nM	–	–	–
Cc1cc2c(CC(=O)O)cccc2n1C(=O)c1ccc(OC[C@H]2CN(C)c3ccccc3O2)cc1	230 nM	> 10000 nM	410 nM	> 10000 nM	> 10000 nM	–	170 nM	10 nM	–
Cc1cc2c(CC(=O)O)cccc2n1C(=O)c1ccc(OCC2CCc3ccccc3O2)cc1 (stereo unspecified)	60 nM	3800 nM	90 nM	> 10000 nM	3100 nM	–	50 nM	30 nM	–
Cc1cc2c(CC(=O)O)cccc2n1C(=O)c1ccc(OC[C@H]2COc3ccccc3O2)cc1	120 nM	2300 nM	1300 nM	> 10000 nM	1300 nM	–	130 nM	270 nM	–

More lines, main results first:

Ki [1]	Ki [2]	Ki [3]	Ki [4]	Ki [5]	IC50 [6]	Ki [7]	IC50 [8]	Compound	inhibition in vivo at 0.3 mg/kg (Cavia porcellus)
10 nM	> 10000 nM	2000 nM	3300 nM	> 10000 nM	300 nM	–	–	CCCCOc1ccc(C(=O)n2c(C)cc3c(CC(=O)O)cccc32)cc1	–
9.4 nM	780 nM	250 nM	750 nM	> 10000 nM	–	30 nM	50 nM	Cc1cc2c(CC(=O)O)cccc2n1C(=O)c1ccc(OCC2Oc3ccccc3O2)cc1	–
23 nM	> 10000 nM	2100 nM	1700 nM	> 10000 nM	–	5.3 nM	0.81 nM	Cc1cc2c(CC(=O)O)cccc2n1C(=O)c1ccc(OC[C@@H]2CN(C)c3ccc(F)cc3O2)cc1	60%
10 nM	5600 nM	540 nM	> 10000 nM	> 10000 nM	50 nM	290 nM	250 nM	Cc1cc2c(CC(=O)O)cccc2n1C(=O)c1ccc(OCCOc2ccccc2)cc1	–
20 nM	7800 nM	450 nM	980 nM	> 10000 nM	–	20 nM	30 nM	Cc1cc2c(CC(=O)O)cccc2n1C(=O)c1ccc(OCC2Cc3ccccc3O2)cc1 (stereo unspecified)	–
10 nM	2000 nM	60 nM	> 10000 nM	> 10000 nM	–	10 nM	30 nM	Cc1cc2c(CC(=O)O)cccc2n1C(=O)c1ccc(OC[C@@H]2COc3ccccc3O2)cc1	–
10 nM	6200 nM	100 nM	1700 nM	> 10000 nM	–	3.5 nM	1.2 nM	Cc1cc2c(CC(=O)O)cccc2n1C(=O)c1ccc(OC[C@@H]2CN(C)c3ccccc3O2)cc1	–
